Series [1] in a line: Sputum pourability (viscosity) test. Set-up: key to pourability: “0”=no change; “+++>” dissolved. The method, then: The ability of sodium citrate solution to decrease the viscosity of sputum samples was examined as follows.
Three different sputum samples were employed: sample 1 was of a runny consistency; sample 2 was of an intermediate consistency; and sample 3 was of a heavy consistency. 100 ul samples were measured and transferred to assay tubes in duplicate (except for sample 1 which was in short supply) and placed in a 37° C. preheated Thermomixer. 10 ul of saline (0.9% NaCl) was used as a negative control. 5 ul, 10 ul, 50 ul or 100 ul of 55 mM aqueous sodium citrate solution was added per tube and mixed (400 rpm). Each tube was checked for pourability, or viscosity, at 30 sec, 90 sec and 150 sec by observing the movement of the sputum sample along the wall of the tube. The pourability of sample 3 was also checked at 5 minutes. The pourability was graded as follows: “0”=no change to “+++>” dissolved. The results of the study are shown below in Table 2 for samples 1-3, and in FIG. 1.

Series [2] can be described thus: Safety and toxicity of nebulized sodium citrate in healthy volunteers (FEV1, FVC). Format: in vivo, human. Further details: FEV1 / FVC: unit not given here. The following applies: for FEV1 / FVC: 5 minutes after treatment. The method, then: The safety and toxicity of aqueous sodium citrate solution was examined as follows. Treatment solutions were prepared by diluting 0 mM, 11 mM and 22 mM sodium citrate in 2 ml of water. The solutions were nebulized and administered to three healthy volunteers in successive treatments, with ascending sodium citrate dosage volumes and a 5 min break between each treatment. The forced expiratory volume in 1 sec (FEV1) and forced vital capacity (FVC) were recorded 5 minutes after each treatment.

For series [3] the following is noted: average found with alpha dornase; cited from earlier work.

Consider `O=C([O-])CC(O)(CC(=O)[O-])C(=O)[O-].[Na+].[Na+].[Na+]` [sodium citrate], for which the pourability result is on record as “+++>” in series [1] (5 ul added to 100 ul sputum, sample 1 (runny), 30 sec); “+++>” in series [1] (5 ul added to 100 ul sputum, sample 1 (runny), 90 sec); “+++>” in series [1] (5 ul added to 100 ul sputum, sample 1 (runny), 150 sec); “+++>” in series [1] (5 ul added to 100 ul sputum, sample 1 (runny), time 0); 0 in series [1] (5 ul added to 100 ul sputum, sample 2 (intermediate), 30 sec); 0 in series [1] (5 ul added to 100 ul sputum, sample 2 (intermediate), time 0). For the same molecule, the pourability in series [1] (5 ul added to 100 ul sputum, sample 3 (heavy), 30 sec) is given as 0; in series [1] (5 ul added to 100 ul sputum, sample 3 (heavy), 5 min) it was “+>”; in series [1] (5 ul added to 100 ul sputum, sample 3 (heavy), time 0), 0; in series [1] (10 ul added to 100 ul sputum, sample 1 (runny), 30 sec) it was “+++>”; in series [1] (10 ul added to 100 ul sputum, sample 1 (runny), 90 sec), “+++>”; in series [1] (10 ul added to 100 ul sputum, sample 1 (runny), 150 sec), “+++>”. The pourability result in series [1] (10 ul added to 100 ul sputum, sample 1 (runny), time 0) is recorded as “+++>”; in series [1] (10 ul added to 100 ul sputum, sample 2 (intermediate), 30 sec), 0; in series [1] (10 ul added to 100 ul sputum, sample 2 (intermediate), 150 sec) it was “+>”; in series [1] (10 ul added to 100 ul sputum, sample 2 (intermediate), time 0), 0; in series [1] (10 ul added to 100 ul sputum, sample 3 (heavy), 30 sec) it was 0; in series [1] (10 ul added to 100 ul sputum, sample 3 (heavy), 5 min) it was “++>”. Besides, the pourability in series [1] (10 ul added to 100 ul sputum, sample 3 (heavy), time 0) is recorded as 0; in series [1] (50 ul added to 100 ul sputum, sample 1 (runny), 30 sec) it was “+++>”; in series [1] (50 ul added to 100 ul sputum, sample 1 (runny), 90 sec), “+++>”; in series [1] (50 ul added to 100 ul sputum, sample 1 (runny), 150 sec) it was “+++>”; in series [1] (50 ul added to 100 ul sputum, sample 1 (runny), time 0) it was “+++>”; in series [1] (50 ul added to 100 ul sputum, sample 2 (intermediate), 150 sec), “++>”. For the same molecule, the pourability is reported as 0 in series [1] (50 ul added to 100 ul sputum, sample 2 (intermediate), time 0); “+>” in series [1] (50 ul added to 100 ul sputum, sample 3 (heavy), 90 sec); “+>” in series [1] (50 ul added to 100 ul sputum, sample 3 (heavy), 150 sec); “+++>” in series [1] (50 ul added to 100 ul sputum, sample 3 (heavy), 5 min); 0 in series [1] (50 ul added to 100 ul sputum, sample 3 (heavy), time 0); “++>” in series [1] (100 ul added to 100 ul sputum, sample 2 (intermediate), 90 sec). In addition, the pourability entry was “+++>” in series [1] (100 ul added to 100 ul sputum, sample 2 (intermediate), 150 sec); 0 in series [1] (100 ul added to 100 ul sputum, sample 2 (intermediate), time 0); “+++>” in series [1] (100 ul added to 100 ul sputum, sample 3 (heavy), 5 min); 0 in series [1] (100 ul added to 100 ul sputum, sample 3 (heavy), time 0). The “time of maximal effectiveness in reducing sputum viscosity” value in series [1] (following incubation) came out at 5 min. For the same molecule, the FEV1 in series [2] (Volunteer 1, 11 mM nebulized) is given as 3.90; in series [2] (Volunteer 1, 22 mM nebulized) it was 3.96; in series [2] (Volunteer 2, 11 mM nebulized) it was 2.39; in series [2] (Volunteer 2, 22 mM nebulized), 2.28; in series [2] (Volunteer 3, 22 mM nebulized), 2.79. Besides, the FVC in series [2] (Volunteer 1, 11 mM nebulized) came out at 4.66; in series [2] (Volunteer 1, 22 mM nebulized) it was 4.82; in series [2] (Volunteer 2, 11 mM nebulized), 3.48; in series [2] (Volunteer 2, 22 mM nebulized), 3.40; in series [2] (Volunteer 3, 22 mM nebulized), 2.84. Moreover, the “irritation or other negative side effects” value in series [2] (nebulization in three healthy volunteers) was “did not result in any irritation or other negative side effects”.

B1: alpha dornase: Pulmozyme® (dornase alfa or rhDNase), approved for treatment of CF (protein, UniProt P24855 23-282, looked up)
Deoxyribonuclease-1: LKIAAFNIQTFGETKMSNATLVSYIVQILSRYDIALVQEVRDSHLTAVGKLLDNLNQDAPDTYHYVVSEPLGRNSYKERYLFVYRPDQVSAVDSYYYDDGCEPCGNDTFNREPAIVRFFSRFTEVREFAIVPLHAAPGDAVAEIDALYDVYLDVQEKWGLEDVMLMGDFNAGCSYVRPSQWSSIRLWTSPTFQWLIPDSADTTATPTHCAYDRIVVAGMLLRGAVVPDSALPFNFQAAYGLSDQLAQAISDHYPVEVMLK
modifications: dornase alfa
notes: Pulmozyme® (dornase alfa or rhDNase), approved for treatment of CF
In the case of B1, in series [3], the “improvement in lung function (FEV1), average” value is on record as 9%.

The values are drawn from patent publication US20160120898A1, “METHODS AND COMPOSITIONS FOR THE DISRUPTION OF BIOFILMS AND TREATMENT OF DISORDERS CHARACTERIZED BY THE PRESENCE OF BIOFILMS” (BREATHE EASY LIMITED, priority 2013, published 2016).
